The assay deals with T1, glucokinase (GK) (Homo sapiens, UniProt P35557).
T1 construct: I.D. No. 1 corresponds to residues 12-465 of glucokinase; made in house; host or cells: E. coli DH10b-T1r
T1 sequence (P35557 with tags, fused parts or gaps isoform P35557-2): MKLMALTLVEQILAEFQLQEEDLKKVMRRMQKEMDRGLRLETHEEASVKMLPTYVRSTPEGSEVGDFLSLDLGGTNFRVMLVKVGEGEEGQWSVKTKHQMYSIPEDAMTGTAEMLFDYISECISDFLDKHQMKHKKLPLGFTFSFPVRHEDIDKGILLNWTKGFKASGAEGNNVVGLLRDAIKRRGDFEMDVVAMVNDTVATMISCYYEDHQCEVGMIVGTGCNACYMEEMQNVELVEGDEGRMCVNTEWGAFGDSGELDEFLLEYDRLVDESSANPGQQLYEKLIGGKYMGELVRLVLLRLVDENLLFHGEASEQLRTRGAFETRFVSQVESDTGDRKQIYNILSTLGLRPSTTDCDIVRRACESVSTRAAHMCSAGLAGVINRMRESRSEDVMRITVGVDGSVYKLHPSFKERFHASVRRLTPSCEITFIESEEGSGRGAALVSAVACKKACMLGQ
In words: enzymatic glucokinase activity assay (ATP consumption, KinaseGlo luminescence). Format: biochemical. Particulars: 5 mM Glucose, 5 μM ATP; for Emax: calculated maximal gain in GK enzyme activity at a saturating concentration of the compound, read-out: % ACTmax; for EC50: negative log of Kact, the concentration that displays 50% of the maximal increase in GK activity, 60 min at room temperature, read-out: pKact. An excerpt:
The activity of compounds as glucokinase activators may be assayed in vitro, in vivo or in a cell line. Provided below is an enzymatic glucokinase activity assay.
Purified glucokinase may be obtained as follows. DNA encoding residues 12-465 of the full-length sequence of the human enzyme may be amplified by PCR and cloned into the HindIII and EcoRI sites of pFLAG-CTC (Sigma). SEQ. I.D. No. 1 corresponds to residues 12-465 of glucokinase.
The expression of recombinant glucokinase protein may be carried out by transformation and growth of DH10b-T1r E. coli cells incorporating the (pFLAG-CTC) plasmid in LB media. Protein expression can be induced in this system by the addition of IPTG to the culture medium.
Recombinant protein may be isolated from cellular extracts by passage over Sepharose Q Fast Flow resin (Pharmacia). This partially purified GK extract may then be further purified by a second passage over Poros HQ10 (Applied Biosystems). The purity of GK may be determined on denaturing SDS-PAGE gel. Purified GK may then be concentrated to a final concentration of 20.0 mg/ml. After flash freezing in liquid nitrogen, the proteins can be stored at −78° C. in a buffer containing 25 mM TRIS-HCl pH 7.6, 50 mM NaCl, and 0.5 mM TCEP.
The activation properties of compounds for GK may be determined using a black 384-well-plate format under the following reaction conditions: 25 mM Hepes pH 7.2, 25 mM NaCl, 10 mM MgCl2, 0.01% Brij35, 1 mM DTT, 5 μM ATP, 5 mM Glucose 2% DMSO. The amount of ATP consumed may be determined quantitatively by addition of equal volume of luciferase reagent (luciferase+beetle luciferin—KinaseGlo Luminescent Kinase Assay kit from Promega). The luminescence intensity may be measured by using the Analyst HT from LJL Biosystems.
The assay reaction may be initiated as follows: 4 μl of substrate mixture (12.5 μM ATP and 12.5 mM Glucose) was added to each well of the plate, followed by the addition of 2 μl of activator (2 fold serial dilutions for 11 data points for each activator) containing 10% DMSO. 4 μL of 1.25 nM GK solution may be added to initiate the reaction. The reaction mixture may then be incubated at room temperature for 60 min, and quenched and developed by addition of 10 μL of luciferase reagent. Luminescence intensities of the resulting reaction mixtures may be measured after a 10 min incubation at room temperature. The luminescence intensity may be measured by using the Analyst HT from LJL Biosystems.
pKact and % ACTmax values may be calculated by non-linear curve fitting of the compound concentrations and luminescence intensities to a standard inhibition/activation equation. […] “pKact” is the negative log of the Kact value; i.e., −log10 [Kact]. % Actmax represents the calculated maximal gain in GK enzyme activity at a saturating concentration of the compound. pKact and % ACTmax values for select compounds of the present invention are given in Table 1.

Bounds are passed on as bounds.

Data on twelve molecules can be found in patent US8394843B2, “Substituted isoindoles as glucokinase activators” (Takeda California, Inc., priority 2006, dated 2013).

`CC(C)CC(C(=O)Nc1nccs1)n1cc2cc(F)ccc2n1` (stereo not drawn) [Example 3, 2-(5-fluoro-2H-indazol-2-yl)-4-methyl-N-(thiazol-2-yl)pentanamide]: the Emax was 50 to 60% and the EC50 is at least 31.6 µM.
The like results for `N=C1c2ccccc2CN1C(CC1CCCCC1)C(=O)Nc1nccs1` (stereo not drawn) [Example 11, 3-cyclohexyl-2-(1-iminoisoindolin-2-yl)-N-(thiazol-2-yl)propanamide] were, in that order, above 60% and at most 10 µM.
In the case of `CC(C)CC(C(=O)Nc1nccs1)n1cc2ccc(S(C)(=O)=O)cc2n1` (stereo not drawn) [Example 5, 4-methyl-2-(6-(methylsulfonyl)-2H-indazol-2-yl)-N-(thiazol-2-yl)pentanamide], the Emax is below 50% and the EC50 was 12.6 to 25.1 µM.
On the same counts, the results for `CC(C)CC(C(=O)Nc1ccccn1)N1C(=O)c2ccccc2C1=O` (stereo not drawn) [Example 14, 2-(1,3-dioxoisoindolin-2-yl)-4-methyl-N-(pyridin-2-yl)pentanamide] are above 60% and 12.6 to 25.1 µM.
The like results for `Cc1c2cc(F)ccc2nn1C(CC(C)C)C(=O)Nc1nccs1` (stereo not drawn) [Example 9, 2-(5-fluoro-3-methyl-2H-indazol-2-yl)-4-methyl-N-(thiazol-2-yl)pentanamide] were, in that order, 50 to 60% and 12.6 to 25.1 µM.
On the same counts, the results for `Cc1c2ccccc2nn1C(CC(C)C)C(=O)Nc1nccs1` (stereo not drawn) [Example 8, 4-methyl-2-(3-methyl-2H-indazol-2-yl)-N-(thiazol-2-yl)pentanamide] are below 50% and at most 10 µM.
As to `CC(C)CC(C(=O)Nc1nccs1)n1cc2ccccc2n1` (stereo not drawn) [Example 2, 2-(2H-indazol-2-yl)-4-methyl-N-(thiazol-2-yl)pentanamide], the Emax is above 60% and the EC50 was at least 31.6 µM.
On the same counts, the results for `CC(C)CC(C(=O)Nc1nccs1)n1cc2ccc([N+](=O)[O-])cc2n1` (stereo not drawn) [Example 4, 4-methyl-2-(6-nitro-2H-indazol-2-yl)-N-(thiazol-2-yl)pentanamide] are below 50% and at most 10 µM.
On the same counts, the results for `CC(C)CC(C(=O)Nc1nccs1)n1cc2cc(O)ccc2n1` (stereo not drawn) [Example 7, 2-(5-hydroxy-2H-indazol-2-yl)-4-methyl-N-(thiazol-2-yl)pentanamide] are above 60% and at least 31.6 µM.
On the same counts, the results for `COc1ccc2nn(C(CC(C)C)C(=O)Nc3nccs3)cc2c1` (stereo not drawn) [Example 6, 2-(5-methoxy-2H-indazol-2-yl)-4-methyl-N-(thiazol-2-yl)pentanamide] are 50 to 60% and at least 31.6 µM.
In the case of `CC(C)CC(C(=O)Nc1nccs1)N1C(=O)c2ccccc2C1=O` (stereo not drawn) [Example 13, 2-(1,3-dioxoisoindolin-2-yl)-4-methyl-N-(thiazol-2-yl)pentanamide], the Emax is above 60% and the EC50 is at most 10 µM.
The like results for `N=C1c2cc(F)ccc2CN1C(CC1CCCCC1)C(=O)Nc1nccs1` (stereo not drawn) [Example 12, 3-cyclohexyl-2-(6-fluoro-1-iminoisoindolin-2-yl)-N-(thiazol-2-yl)propanamide] were, in that order, above 60% and 12.6 to 25.1 µM.
